Experimental data published in ChEMBL document CHEMBL4321795, “Metabolism by Aldehyde Oxidase: Drug Design and Complementary Approaches to Challenges in Drug Discovery” (J Med Chem, 2019).
Blank lines part the entries; values can stand above or below the compound they belong to.

Tests used:
[1] = Oral bioavailability in BDF1 mouse at 50 mg/kg after 2 to 24 hrs by HPLC analysis; format: ADME, organism-based; settings: in vivo
[2] = Oral bioavailability in BDF1 mouse at 25 mg/kg after 2 to 24 hrs by HPLC analysis; format: ADME, organism-based; settings: in vivo
Aldehyde oxidase 1 [3] = molecular target: T1, Aldehyde oxidase 1 (Cavia porcellus, UniProt H9TB17); assay: Substrate activity at aldehyde oxidase in guinea pig liver cytosol assessed as enzyme-mediated drug uptake by mass spectrophotometric analysis; format: ADME, subcellular
T1 sequence (H9TB17 whole entry): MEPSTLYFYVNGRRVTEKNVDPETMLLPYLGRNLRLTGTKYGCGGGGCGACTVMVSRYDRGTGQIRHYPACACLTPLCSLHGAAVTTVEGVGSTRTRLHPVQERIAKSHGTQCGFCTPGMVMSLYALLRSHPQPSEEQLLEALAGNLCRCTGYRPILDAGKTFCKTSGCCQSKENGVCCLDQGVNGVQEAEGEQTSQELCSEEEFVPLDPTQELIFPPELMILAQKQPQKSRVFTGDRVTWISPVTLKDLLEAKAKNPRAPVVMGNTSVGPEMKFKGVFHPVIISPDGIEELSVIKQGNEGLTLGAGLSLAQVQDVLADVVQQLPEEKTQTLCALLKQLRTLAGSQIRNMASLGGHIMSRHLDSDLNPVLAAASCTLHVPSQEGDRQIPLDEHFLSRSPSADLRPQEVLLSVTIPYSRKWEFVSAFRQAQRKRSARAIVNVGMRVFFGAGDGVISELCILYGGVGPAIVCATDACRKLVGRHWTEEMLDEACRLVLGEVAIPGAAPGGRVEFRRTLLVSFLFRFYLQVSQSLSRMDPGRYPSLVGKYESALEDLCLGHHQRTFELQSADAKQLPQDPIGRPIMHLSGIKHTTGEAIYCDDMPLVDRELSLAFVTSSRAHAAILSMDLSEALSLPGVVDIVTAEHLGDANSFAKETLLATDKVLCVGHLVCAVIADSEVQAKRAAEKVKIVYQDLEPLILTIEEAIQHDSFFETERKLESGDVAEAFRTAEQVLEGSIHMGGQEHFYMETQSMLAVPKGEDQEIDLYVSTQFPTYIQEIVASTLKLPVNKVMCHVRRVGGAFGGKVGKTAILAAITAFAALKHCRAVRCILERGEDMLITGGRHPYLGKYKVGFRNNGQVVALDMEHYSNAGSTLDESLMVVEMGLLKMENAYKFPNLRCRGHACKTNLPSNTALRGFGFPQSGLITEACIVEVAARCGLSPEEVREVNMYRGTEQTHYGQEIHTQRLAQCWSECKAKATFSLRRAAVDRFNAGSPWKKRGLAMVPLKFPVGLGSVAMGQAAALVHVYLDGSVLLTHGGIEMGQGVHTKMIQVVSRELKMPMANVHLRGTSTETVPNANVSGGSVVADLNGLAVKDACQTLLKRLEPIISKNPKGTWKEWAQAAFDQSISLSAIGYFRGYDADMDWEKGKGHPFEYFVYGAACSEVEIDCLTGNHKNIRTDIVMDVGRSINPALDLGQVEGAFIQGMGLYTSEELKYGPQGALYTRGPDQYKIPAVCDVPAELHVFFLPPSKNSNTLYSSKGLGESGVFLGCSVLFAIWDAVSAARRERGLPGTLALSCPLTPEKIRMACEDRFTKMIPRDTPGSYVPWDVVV

Aldehyde oxidase 1 [4] = molecular target: T2, Aldehyde oxidase 1 (Rattus norvegicus, UniProt Q9Z0U5); assay: Substrate activity at aldehyde oxidase in rat liver cytosol assessed as enzyme-mediated drug uptake by mass spectrophotometric analysis; format: ADME, subcellular
T2 sequence (Q9Z0U5 whole entry): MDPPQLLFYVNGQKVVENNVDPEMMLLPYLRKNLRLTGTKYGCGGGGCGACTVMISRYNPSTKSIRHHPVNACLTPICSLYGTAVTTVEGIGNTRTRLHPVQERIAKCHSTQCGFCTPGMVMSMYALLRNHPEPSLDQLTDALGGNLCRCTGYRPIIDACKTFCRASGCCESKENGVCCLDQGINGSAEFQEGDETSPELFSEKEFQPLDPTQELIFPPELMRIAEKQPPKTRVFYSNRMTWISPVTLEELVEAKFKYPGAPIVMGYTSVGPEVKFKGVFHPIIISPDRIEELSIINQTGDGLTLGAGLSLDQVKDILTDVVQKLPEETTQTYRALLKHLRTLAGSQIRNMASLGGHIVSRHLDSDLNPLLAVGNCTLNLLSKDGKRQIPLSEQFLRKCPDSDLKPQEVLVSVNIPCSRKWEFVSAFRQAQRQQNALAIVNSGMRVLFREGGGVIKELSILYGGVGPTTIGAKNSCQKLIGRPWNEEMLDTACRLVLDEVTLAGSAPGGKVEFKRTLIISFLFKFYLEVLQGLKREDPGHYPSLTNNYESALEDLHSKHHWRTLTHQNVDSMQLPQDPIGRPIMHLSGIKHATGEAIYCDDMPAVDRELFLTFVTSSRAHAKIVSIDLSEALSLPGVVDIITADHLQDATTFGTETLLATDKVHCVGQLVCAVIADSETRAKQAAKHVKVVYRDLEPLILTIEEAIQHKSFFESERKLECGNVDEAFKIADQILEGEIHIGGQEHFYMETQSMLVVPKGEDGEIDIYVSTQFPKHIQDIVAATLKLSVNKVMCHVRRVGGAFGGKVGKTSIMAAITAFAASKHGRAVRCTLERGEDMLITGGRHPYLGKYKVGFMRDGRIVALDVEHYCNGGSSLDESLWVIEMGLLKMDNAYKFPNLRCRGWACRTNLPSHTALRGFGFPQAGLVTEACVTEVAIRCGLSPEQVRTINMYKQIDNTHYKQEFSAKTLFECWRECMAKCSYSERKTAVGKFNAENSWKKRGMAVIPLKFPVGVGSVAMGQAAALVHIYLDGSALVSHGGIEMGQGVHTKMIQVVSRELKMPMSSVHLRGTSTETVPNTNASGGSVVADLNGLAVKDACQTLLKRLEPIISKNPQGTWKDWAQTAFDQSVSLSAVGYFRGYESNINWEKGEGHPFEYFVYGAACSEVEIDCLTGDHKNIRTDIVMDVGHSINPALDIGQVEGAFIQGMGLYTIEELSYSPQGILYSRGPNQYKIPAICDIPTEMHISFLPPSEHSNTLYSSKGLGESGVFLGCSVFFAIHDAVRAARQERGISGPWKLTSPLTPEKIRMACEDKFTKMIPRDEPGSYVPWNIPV

Aldehyde oxidase [5] = molecular target: T3, Aldehyde oxidase (Homo sapiens, UniProt Q06278); assay: Substrate activity at aldehyde oxidase in human liver cytosol assessed as enzyme-mediated drug uptake by mass spectrophotometric analysis; format: ADME, subcellular
T3 sequence (Q06278 whole entry): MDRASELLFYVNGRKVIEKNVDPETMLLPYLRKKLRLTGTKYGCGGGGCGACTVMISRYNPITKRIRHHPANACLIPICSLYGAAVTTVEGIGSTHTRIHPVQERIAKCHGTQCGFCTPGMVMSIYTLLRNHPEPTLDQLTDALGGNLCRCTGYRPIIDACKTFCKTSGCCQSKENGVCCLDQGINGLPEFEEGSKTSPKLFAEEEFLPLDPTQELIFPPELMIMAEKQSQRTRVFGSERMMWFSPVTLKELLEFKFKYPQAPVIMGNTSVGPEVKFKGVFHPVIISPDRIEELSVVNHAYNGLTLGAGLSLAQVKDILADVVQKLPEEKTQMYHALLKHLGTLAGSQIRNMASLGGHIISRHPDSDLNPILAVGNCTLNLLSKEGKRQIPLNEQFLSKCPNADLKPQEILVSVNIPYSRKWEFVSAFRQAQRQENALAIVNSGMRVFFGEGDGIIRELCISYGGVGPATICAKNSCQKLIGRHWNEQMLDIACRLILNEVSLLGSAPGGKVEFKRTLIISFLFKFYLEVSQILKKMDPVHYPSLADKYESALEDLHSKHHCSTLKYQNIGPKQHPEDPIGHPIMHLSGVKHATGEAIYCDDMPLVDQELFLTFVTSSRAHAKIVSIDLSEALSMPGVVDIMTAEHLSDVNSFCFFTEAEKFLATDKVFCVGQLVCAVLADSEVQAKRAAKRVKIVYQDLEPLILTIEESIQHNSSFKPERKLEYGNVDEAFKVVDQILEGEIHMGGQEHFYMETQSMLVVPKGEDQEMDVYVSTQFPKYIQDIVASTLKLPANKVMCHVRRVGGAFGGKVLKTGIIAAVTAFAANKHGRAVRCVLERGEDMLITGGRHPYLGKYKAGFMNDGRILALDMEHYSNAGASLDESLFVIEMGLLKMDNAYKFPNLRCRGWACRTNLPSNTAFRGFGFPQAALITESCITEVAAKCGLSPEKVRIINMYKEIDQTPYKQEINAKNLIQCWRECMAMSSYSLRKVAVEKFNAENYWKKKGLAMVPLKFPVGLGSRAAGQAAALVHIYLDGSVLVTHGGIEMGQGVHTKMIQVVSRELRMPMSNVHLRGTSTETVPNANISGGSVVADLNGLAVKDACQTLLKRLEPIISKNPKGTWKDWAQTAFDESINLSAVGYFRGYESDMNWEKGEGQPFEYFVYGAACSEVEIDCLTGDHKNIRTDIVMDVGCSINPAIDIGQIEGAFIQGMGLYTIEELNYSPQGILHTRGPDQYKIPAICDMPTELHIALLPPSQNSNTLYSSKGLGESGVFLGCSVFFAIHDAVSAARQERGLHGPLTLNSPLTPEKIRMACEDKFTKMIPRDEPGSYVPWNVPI

Aldehyde oxidase [6] = molecular target: T3, Aldehyde oxidase; assay: Substrate activity at aldehyde oxidase in human liver S9 fractions assessed as enzyme-mediated 2-oxo metabolite formation by measuring half life at 1 uM after 10 to 120 mins by liquid chromatography-tandem mass spectrometry; format: ADME, subcellular; settings: s9, 1 µM
Aldehyde oxidase [7] = molecular target: T3, Aldehyde oxidase; assay: Substrate activity at aldehyde oxidase in human hepatocytes assessed as enzyme-mediated drug uptake at 1 uM; format: ADME, cell-based
Aldehyde oxidase 1 [8] = molecular target: T1, Aldehyde oxidase 1; assay: Substrate activity at aldehyde oxidase in guinea pig liver cytosol assessed as enzyme-mediated drug uptake at 1 uM; format: ADME, subcellular
Aldehyde oxidase [9] = molecular target: T3, Aldehyde oxidase; assay: Substrate activity at aldehyde oxidase in human liver cytosol assessed as enzyme-mediated drug uptake at 1 uM; format: ADME, subcellular
Aldehyde oxidase 1 [10] = molecular target: T2, Aldehyde oxidase 1; assay: Substrate activity at aldehyde oxidase in rat liver cytosol assessed as enzyme-mediated drug uptake at 1 uM; format: ADME, subcellular
Aldehyde oxidase [11] = molecular target: T3, Aldehyde oxidase; assay: Substrate activity at aldehyde oxidase in human liver cytosol assessed as enzyme-mediated M2 metabolite formation at 10 uM after 90 mins by LC-MS/MS analysis; format: ADME, subcellular
[12] = Oral bioavailability in human; format: ADME, organism-based; settings: in vivo

bioavailability [1]: 78% | bioavailability [2]: 100%
SMILES: Oc1ncc(F)cn1

K (Aldehyde oxidase 1 [3]): 4.7 to 5.1 | K (Aldehyde oxidase 1 [4]): 4.7 to 5.1 | K (Aldehyde oxidase [5]): 4.7 to 5.1
SMILES: c1ccc2cnncc2c1 [PHTHALAZINE]

t1/2 (Aldehyde oxidase [6]): < 5 min
SMILES: N=C(N)NC(=O)c1cnn(-c2ccc3ncccc3c2)c1C1CC1

K (Aldehyde oxidase [7]): 1.9 | K (Aldehyde oxidase 1 [8]): 3.6 to 6.1 | K (Aldehyde oxidase [9]): 3.6 to 6.1 | K (Aldehyde oxidase 1 [10]): 3.6 to 6.1
SMILES: N=C(N)NC(=O)c1cnn(-c2cccc3ncccc23)c1C1CC1 [ZONIPORIDE]

Activity (Aldehyde oxidase [11]): 77%
SMILES: CCCN1CC(c2ccc(S(C)(=O)=O)cc2)=C(c2ccc(C=O)cc2)C1=O

K (Aldehyde oxidase 1 [3]): 4.7 to 5.1 | K (Aldehyde oxidase 1 [4]): 4.7 to 5.1 | K (Aldehyde oxidase [5]): 4.7 to 5.1
SMILES: c1ccc2nccnc2c1 [QUINOXALINE]

bioavailability [12]: 77%
SMILES: Nc1nc2c(ncn2CCC(CO)CO)c(=O)[nH]1 [PENCICLOVIR]
